One test concerns the target ALK (Homo sapiens, UniProt Q9UM73). Briefly: Kinase assay, ALK (33P-ATP incorporation or luciferase-coupled ATP consumption). It counts as biochemical. As for the experimental part:
Kinase assays were performed by measurement of incorporation of γ-^33P ATP into immobilized myelin basic protein (MBP). […] Plates were washed 3× with 100 μl TBS. […] Compound dilutions were performed in DMSO and added to assay wells to a final DMSO concentration of 1%. Each data point was measured in duplicate, and at least two duplicate assays were performed for each individual compound determination. Enzyme was added to final concentrations of 10 nM or 20 nM, for example. A mixture of unlabeled ATP and γ-^33P ATP was added to start the reaction (2×10^6 cpm of γ-^33P ATP per well (3000 Ci/mmole) and either 10 μM or 30 μM unlabeled ATP, typically. The reactions were carried out for 1 hour at room temperature with shaking. Plates were washed 7× with TBS, followed by the addition of 50 μl/well scintillation fluid (Wallac). Plates were read using a Wallac Trilux counter. This is only one format of such assays, various other formats are possible, as known to one of ordinary skill in the art.
Tyrosine kinase activity is determined by 1) measurement of kinase-dependent ATP consumption by in the presence of a generic substrate such as, polyglutamic acid, tyrosine, 4:1 (pEY), by luciferase/luciferin-mediated chemiluminescence or; 2) incorporation of radioactive phosphate derived from ^33P-ATP into a generic substrate which has been adsorbed onto the well surface of polystyrene microtiter plates. Phosphorylated substrate products are quantified by scintillation spectrometry.
(§1) Kinase activity and compound inhibition are investigated using one or more assay formats. The ATP concentrations for each assay are selected to be close to the Michaelis-Menten constant (KM) for each individual kinase. Dose-response experiments are performed at 10 different inhibitor concentrations in a 384-well plate format. […] Exemplary kinase assays are described below. KDR Assay

In the next test the target is IRK (Homo sapiens, UniProt P06213). As to the kind of experiment: Kinase assay, IRK. It is filed as biochemical. The protocol: as §1
Another test has as its target EGFR (Homo sapiens, UniProt P00533). Briefly: Kinase assay, EGFR (33P-ATP incorporation or luciferase-coupled ATP consumption). It is filed as biochemical. Summed up:
(§2)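 Kinase activity measured either by γ-33P ATP incorporation into immobilized substrate (MBP or pEY) with scintillation counting, or by luciferase-based ATP consumption with pEY. Enzyme 10 or 20 nM; ATP near each kinase's KM (e.g. 10 or 30 μM); 1 h at room temperature, 1% DMSO, 10-point dose-response.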

The target of another test is c-Kit kinase (Homo sapiens, UniProt P10721). As to the kind of experiment: c-Kit AlphaScreen kinase assay. It is filed as biochemical. The protocol: as §1
c-Kit biochemical activity was assessed using AlphaScreen™ (Perkin Elmer) technology, described above. Test compounds, ATP, biotinylated poly(Glu, Tyr) and c-Kit kinase were combined in a volume of 20 μL in a 384-well white, medium binding microtiter plate (Greiner). Reaction mixtures were incubated for 1 hr at ambient temperature. Reactions were quenched by addition of 10 uL of […] AlphaScreen bead suspension containing 75 mM Hepes, pH 7.4, 300 mM NaCl, 120 mM EDTA, 0.3% BSA and 0.03% Tween-20. After 16 hr incubation at ambient temperature plates were read using an AlphaQuest reader (Perkin Elmer).
Background: Bead proximity is the source of the signal in Alpha formats.

Test [1] concerns the target T1, KDR (baculovirus expressed human KDR kinase domain D807-V1356) (Homo sapiens, UniProt P35968).
T1 construct: human KDR kinase domain D807-V1356; host or cells: baculovirus expression system
Briefly: biochemical. In outline:
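Baculovirus human KDR kinase domain (D807–V1356) with ATP near its KM; 10-point dose-response, 4 h at ambient temperature. Activity taken as percent ATP remaining, detected by luciferase–luciferin chemiluminescence.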

The next test has as its target Fyn (Homo sapiens, UniProt P06241). As to the kind of experiment: Kinase assay, Fyn. It is filed as biochemical. As for the experimental part:
as §1

The next test addresses PDGFR alpha (Homo sapiens, UniProt P16234). Briefly: Kinase assay, PDGFR alpha (33P-ATP incorporation or luciferase-coupled ATP consumption). It counts as biochemical. The settings on record: read-out: PDGF-R-A IC50. In outline: as §2
In a further test the target is EphA2 (Homo sapiens, UniProt P29317). Briefly: Kinase assay, EphA2 (33P-ATP incorporation or luciferase-coupled ATP consumption). It is filed as biochemical. Summed up:
as §2

Another test concerns the target FGFR1 (Homo sapiens, UniProt P11362). Briefly: Kinase assay, FGFR1 (33P-ATP incorporation or luciferase-coupled ATP consumption). It is filed as biochemical. Summed up: as §2

SMILES strings stand for the structures. Where only a bound is given, the exact number is not on record here.

IRK, sequence (P06213 28-1382): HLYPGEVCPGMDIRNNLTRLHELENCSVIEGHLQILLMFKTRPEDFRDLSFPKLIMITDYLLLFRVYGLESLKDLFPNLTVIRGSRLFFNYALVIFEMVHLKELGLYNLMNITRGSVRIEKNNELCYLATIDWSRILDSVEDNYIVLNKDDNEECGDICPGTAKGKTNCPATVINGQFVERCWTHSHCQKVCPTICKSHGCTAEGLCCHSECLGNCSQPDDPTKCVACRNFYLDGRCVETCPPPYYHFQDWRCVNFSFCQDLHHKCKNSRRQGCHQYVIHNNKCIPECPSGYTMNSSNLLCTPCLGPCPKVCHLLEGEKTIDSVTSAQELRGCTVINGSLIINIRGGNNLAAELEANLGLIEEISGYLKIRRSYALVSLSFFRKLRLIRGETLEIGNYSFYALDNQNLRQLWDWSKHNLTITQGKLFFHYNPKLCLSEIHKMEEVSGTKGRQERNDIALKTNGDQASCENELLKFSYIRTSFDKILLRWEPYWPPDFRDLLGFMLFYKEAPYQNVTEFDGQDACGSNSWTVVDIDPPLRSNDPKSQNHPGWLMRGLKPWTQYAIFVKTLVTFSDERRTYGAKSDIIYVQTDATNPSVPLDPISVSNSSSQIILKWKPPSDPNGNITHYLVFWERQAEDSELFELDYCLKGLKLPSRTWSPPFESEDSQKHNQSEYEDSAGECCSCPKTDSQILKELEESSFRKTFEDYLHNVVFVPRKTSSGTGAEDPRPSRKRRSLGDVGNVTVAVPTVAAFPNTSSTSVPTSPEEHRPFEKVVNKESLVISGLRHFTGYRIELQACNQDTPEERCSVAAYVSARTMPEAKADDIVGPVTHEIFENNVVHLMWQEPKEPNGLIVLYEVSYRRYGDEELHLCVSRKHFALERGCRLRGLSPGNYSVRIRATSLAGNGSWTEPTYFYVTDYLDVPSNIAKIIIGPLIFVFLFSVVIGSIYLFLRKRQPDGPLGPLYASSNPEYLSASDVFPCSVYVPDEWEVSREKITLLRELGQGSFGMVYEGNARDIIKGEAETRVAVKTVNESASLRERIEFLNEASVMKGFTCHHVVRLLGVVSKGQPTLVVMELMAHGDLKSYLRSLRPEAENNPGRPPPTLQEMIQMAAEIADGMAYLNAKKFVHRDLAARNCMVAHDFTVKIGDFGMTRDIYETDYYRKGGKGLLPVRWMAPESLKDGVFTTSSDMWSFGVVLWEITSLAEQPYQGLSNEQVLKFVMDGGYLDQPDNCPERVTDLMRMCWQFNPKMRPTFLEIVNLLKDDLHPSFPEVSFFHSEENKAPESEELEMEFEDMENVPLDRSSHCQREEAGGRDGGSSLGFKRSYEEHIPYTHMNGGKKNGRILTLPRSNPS
T1 sequence (P35968 807-1356): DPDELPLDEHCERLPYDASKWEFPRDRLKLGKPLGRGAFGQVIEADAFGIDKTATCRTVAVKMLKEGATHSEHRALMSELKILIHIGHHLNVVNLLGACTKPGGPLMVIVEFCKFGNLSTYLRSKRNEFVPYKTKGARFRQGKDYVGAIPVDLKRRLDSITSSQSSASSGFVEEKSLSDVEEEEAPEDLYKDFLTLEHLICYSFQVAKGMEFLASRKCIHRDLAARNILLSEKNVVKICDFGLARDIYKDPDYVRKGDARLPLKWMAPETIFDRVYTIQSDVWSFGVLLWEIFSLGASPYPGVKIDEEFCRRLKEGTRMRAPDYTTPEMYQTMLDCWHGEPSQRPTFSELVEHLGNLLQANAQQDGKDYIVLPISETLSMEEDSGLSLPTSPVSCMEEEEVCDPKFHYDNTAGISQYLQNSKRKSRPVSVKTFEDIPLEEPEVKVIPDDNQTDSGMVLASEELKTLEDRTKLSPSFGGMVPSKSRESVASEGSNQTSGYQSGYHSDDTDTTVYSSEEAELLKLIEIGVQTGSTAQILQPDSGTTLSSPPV
Fyn, sequence (P06241 whole entry, species assumed): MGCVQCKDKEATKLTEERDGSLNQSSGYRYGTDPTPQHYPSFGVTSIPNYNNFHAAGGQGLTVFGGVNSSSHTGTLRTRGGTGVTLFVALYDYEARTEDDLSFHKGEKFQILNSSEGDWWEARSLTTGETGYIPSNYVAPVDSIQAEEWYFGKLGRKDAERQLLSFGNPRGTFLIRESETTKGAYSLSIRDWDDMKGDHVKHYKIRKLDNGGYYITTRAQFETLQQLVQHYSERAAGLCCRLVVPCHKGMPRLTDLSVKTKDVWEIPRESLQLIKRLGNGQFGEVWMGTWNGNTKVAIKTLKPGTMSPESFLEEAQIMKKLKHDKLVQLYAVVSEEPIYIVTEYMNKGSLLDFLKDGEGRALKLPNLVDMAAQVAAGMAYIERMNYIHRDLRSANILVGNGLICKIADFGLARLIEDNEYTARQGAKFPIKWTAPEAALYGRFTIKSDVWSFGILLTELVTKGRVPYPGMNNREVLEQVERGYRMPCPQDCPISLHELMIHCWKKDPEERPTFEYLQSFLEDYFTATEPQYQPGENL
PDGFR alpha, sequence (P16234 24-1089): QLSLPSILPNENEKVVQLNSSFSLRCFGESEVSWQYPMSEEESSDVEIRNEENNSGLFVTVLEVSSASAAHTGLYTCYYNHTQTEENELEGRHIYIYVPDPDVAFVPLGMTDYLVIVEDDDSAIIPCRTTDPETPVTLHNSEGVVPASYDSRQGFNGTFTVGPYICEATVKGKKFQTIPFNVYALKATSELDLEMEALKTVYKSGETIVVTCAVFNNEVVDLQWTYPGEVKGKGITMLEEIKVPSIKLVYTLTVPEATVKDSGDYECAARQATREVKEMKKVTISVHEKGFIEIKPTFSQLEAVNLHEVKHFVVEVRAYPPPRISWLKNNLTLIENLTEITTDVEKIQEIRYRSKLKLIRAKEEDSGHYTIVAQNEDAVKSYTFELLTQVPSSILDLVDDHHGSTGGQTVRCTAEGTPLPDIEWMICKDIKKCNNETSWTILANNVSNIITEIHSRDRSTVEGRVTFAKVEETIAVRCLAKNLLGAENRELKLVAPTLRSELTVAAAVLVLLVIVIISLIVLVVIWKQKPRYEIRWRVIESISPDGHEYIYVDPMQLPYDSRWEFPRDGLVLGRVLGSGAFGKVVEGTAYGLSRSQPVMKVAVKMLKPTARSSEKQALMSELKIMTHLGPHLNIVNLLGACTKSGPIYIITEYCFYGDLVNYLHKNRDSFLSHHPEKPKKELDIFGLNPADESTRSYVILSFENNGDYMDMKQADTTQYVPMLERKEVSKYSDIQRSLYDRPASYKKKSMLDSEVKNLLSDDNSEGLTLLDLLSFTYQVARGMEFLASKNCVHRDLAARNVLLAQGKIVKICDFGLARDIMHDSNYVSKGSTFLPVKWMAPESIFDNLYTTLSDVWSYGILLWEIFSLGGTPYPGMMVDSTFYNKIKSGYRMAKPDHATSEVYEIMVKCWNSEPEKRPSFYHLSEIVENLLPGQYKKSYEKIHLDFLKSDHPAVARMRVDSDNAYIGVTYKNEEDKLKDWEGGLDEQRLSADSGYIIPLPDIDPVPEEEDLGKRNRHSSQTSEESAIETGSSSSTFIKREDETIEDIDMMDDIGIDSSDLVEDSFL
FGFR1, sequence (P11362 22-822, species assumed): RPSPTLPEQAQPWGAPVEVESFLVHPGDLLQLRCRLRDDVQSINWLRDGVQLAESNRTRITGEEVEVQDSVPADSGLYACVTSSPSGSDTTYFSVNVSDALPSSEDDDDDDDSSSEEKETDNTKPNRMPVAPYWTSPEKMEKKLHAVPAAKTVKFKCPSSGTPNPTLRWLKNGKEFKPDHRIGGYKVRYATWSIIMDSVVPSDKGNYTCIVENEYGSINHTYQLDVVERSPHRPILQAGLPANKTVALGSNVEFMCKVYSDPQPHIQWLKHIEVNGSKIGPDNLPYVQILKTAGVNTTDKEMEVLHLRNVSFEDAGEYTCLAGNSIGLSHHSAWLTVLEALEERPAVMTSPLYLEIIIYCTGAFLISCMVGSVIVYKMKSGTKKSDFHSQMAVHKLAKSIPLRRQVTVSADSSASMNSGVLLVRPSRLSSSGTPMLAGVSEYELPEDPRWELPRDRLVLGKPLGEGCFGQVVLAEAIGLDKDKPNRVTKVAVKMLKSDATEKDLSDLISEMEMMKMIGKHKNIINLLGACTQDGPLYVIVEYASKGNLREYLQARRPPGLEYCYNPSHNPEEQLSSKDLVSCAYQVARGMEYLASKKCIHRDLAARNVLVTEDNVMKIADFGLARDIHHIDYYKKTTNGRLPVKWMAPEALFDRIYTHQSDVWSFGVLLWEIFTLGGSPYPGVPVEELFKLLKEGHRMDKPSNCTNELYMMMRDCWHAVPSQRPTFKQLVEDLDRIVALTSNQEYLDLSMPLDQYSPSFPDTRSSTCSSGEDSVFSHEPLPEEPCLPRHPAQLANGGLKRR

As usually defined, the IC50 is the point on the concentration scale where inhibition reaches its midpoint. Take `CCN1CCC(Nc2ccc3c(c2)/C(=C(/c2nc(C)c[nH]2)c2cccc(F)c2F)C(=O)N3)CC1` [Entry 110, (3Z)-3-[(2,3-difluorophenyl)(4-methyl-1H-imidazol-2-yl)methylidene]-5-[(1-ethylpiperidin-4-yl)amino]-1,3-dihydro-2H-indol-2-one]: the IC50 is less than 50 nM at ALK; 500 to 5000 nM against IRK; 50 to 500 nM at EGFR; less than 50 nM on c-Kit kinase; less than 50 nM in [1]; less than 50 nM on Fyn. The IC50 was less than 50 nM on PDGFR alpha, 500 to 5000 nM against EphA2 and less than 50 nM against FGFR1.
On to `CCN1CCC(Nc2ccc3c(c2)/C(=C(\c2ccc(Cl)cc2)c2nc(C)c[nH]2)C(=O)N3)CC1` [Entry 102], for which the IC50 is less than 50 nM against ALK; 500 to 5000 nM against IRK; 50 to 500 nM on EGFR; less than 50 nM at c-Kit kinase; less than 50 nM in test [1]; less than 50 nM against Fyn. The IC50 was less than 50 nM at PDGFR alpha, 500 to 5000 nM on EphA2 and less than 50 nM against FGFR1.
Take `CCN1CCC(Nc2ccc3c(c2)/C(=C(\c2ccc(F)cc2)c2ncc[nH]2)C(=O)N3)CC1` [Entry 58, (3Z)-5-[(1-ethylpiperidin-4-yl)amino]-3-[(4-fluorophenyl)(1H-imidazol-2-yl)methylidene]-1,3-dihydro-2H-indol-2-one]: the IC50 was 50 to 500 nM against ALK; greater than 5000 nM against IRK; 500 to 5000 nM on EGFR; less than 50 nM at c-Kit kinase; less than 50 nM in test [1]; less than 50 nM at Fyn. For the same molecule, the concentration for half-maximal inhibition (IC50) is less than 50 nM at PDGFR alpha, 500 to 5000 nM against EphA2 and less than 50 nM at FGFR1.
In the case of `CCN1CCC(Nc2ccc3c(c2)/C(=C(/c2nc(C)c[nH]2)c2ccc(F)cc2F)C(=O)N3)CC1` [Entry 111, (3Z)-3-[(2,4-difluorophenyl)(4-methyl-1H-imidazol-2-yl)methylidene]-5-[(1-ethylpiperidin-4-yl)amino]-1,3-dihydro-2H-indol-2-one], the IC50 was 50 to 500 nM against ALK; 500 to 5000 nM on IRK; 50 to 500 nM at EGFR; less than 50 nM at c-Kit kinase; less than 50 nM in [1]; less than 50 nM on Fyn. Besides, the IC50 on PDGFR alpha is less than 50 nM; against EphA2, 500 to 5000 nM; against FGFR1 it was 50 to 500 nM.

(Values after patent publication US7626031B2, “Substituted 3-(diarylmethylene)indolin-2-ones and methods of their use” (Symphony Evolution, Inc., priority 2002, dated 2009).)
